# Laboratory results reported in PMC9038204, “SNX27–Retromer directly binds ESCPE-1 to transfer cargo proteins during endosomal recycling” (PLoS Biology, 2022).
# Read-outs that look alike come from different tables or passages of the source. Where no end group is shown, it is not given here.
# Legend:
# [1] = tested on: SNX27; assay: GFP trap co-immunoprecipitation of GFP-SNX1/SNX2 constructs from HEK-293T, quantitative western blot: SNX27; type: binding; details: for SNX27 co-immunoprecipitated (quantitative western blot), mean: Fig. 3F, GFP-tagged SNX1 WT or mutant as bait, HEK-293T, WT set to 100, mean of n = 4; for reduced binding to SNX27: full-length GFP-SNX1 point mutants in HEK293T, versus SNX1 WT
# Protocol: (§1) HeLa and HEK-293T cell lines were sourced from ATCC. Authentication was from the ATCC. Cells were grown in DMEM (Sigma-Aldrich) supplemented with 10% (v/v) FCS (Sigma-Aldrich) and penicillin/streptomycin (Gibco, USA) and grown under standard conditions. FuGENE HD (Promega, USA) was used for transient transfection of DNA according to the manufacturer’s instructions. Cycloheximide was used to prevent up-regulation of protein synthesis. In this case, cycloheximide (C7698; Sigma-Aldrich) at 10 μg/ml was added to the cells 48 hours after FuGENE transfection for the indicated time points. For the generation of CRISPR-Cas9 SNX27 knockout HeLa cells, HeLa cells were transfected with pX330 plasmid coding for the gRNA against the gene of interest together with a puromycin resistance–expressing plasmid. Cells were then subjected to puromycin selection for 24 hours. The pooled population of cells was subjected to lysis and western blotting to confirm the knockout. The VPS35 knockout clonal cell line used in this study was characterized previously. For GFP-based immunoprecipitations, HEK293T cells were transfected with GFP constructs using polyethylenimine (Sigma-Aldrich) and expression was allowed for 48 hours.
# (§2) For western blotting, cells were lysed in PBS with 1% (v/v) Triton X-100 and protease inhibitor cocktail. The protein concentration was determined with a BCA assay kit (Thermo Fisher Scientific, USA), and equal amounts were resolved on NuPAGE 4% to 12% precast gels (Invitrogen, USA). Blotting was performed onto polyvinylidene fluoride membranes (Immobilon-FL; EMD Millipore, USA) followed by detection using the Odyssey infrared scanning system (LI-COR Biosciences, USA). For GFP-based immunoprecipitations, HEK-293T cells were lysed 48 hours after transfection in immunoprecipitation buffer (50 mM Tris-HCl, 0.5% (v/v) NP-40, and Roche protease inhibitor cocktail) and subjected to GFP trap (ChromoTek, Germany). Immunoblotting was performed using standard procedures. Detection was performed on an Odyssey infrared scanning system (LI-COR Biosciences) using fluorescently labeled secondary antibodies. In using the Odyssey, we routinely performed western blot analysis where a single blot is simultaneously probed with antibodies against 2 proteins of interest (distinct antibody species) followed by visualization with the corresponding secondary antibodies conjugated to distinct spectral dyes.
# [2] = tested on: SNX6; assay: GFP trap co-immunoprecipitation from HEK-293T, quantitative western blot: SNX6; type: binding; details: Fig. 3F, GFP-tagged SNX1 WT or mutant as bait, WT set to 100, mean of n = 4
# Protocol: as §1, §2
# [3] = molecular target: T1, full-length mouse SNX27 (mSNX27FL) (Mus musculus, UniProt Q3UHD6); assay: ITC, hSNX1/2 peptides against mSNX27FL; type: binding; details: 25°C, 50 mM HEPES pH 7.5, 200 mM NaCl, 5% glycerol, 1 mM β-ME, 800 μM peptide titrated into 20 μM mSNX27FL, single-site fit, mean of at least 2 experiments
# T1 construct: DNA encoding full-length mouse SNX27 (mSNX27FL hereafter) was inserted into the pMCSG7 vector; made in house; host or cells: Escherichia coli BL21 CodonPlus (DE3)
# Protocol: Human SNX1 and SNX2 peptide sequences were synthesized by Genscript (USA). To obtain the peptide stock solutions at neutral pH, 100 mM Tris-HCl, pH 10.6 was used to dissolve the peptide to a final concentration of 8 mM. The peptides were SNX1_35-51 […], SNX135-51(D45K) […], SNX1_75-92 […], SNX2_16-33 […], SNX2_16-33(DLF/SSS) […], and SNX2_62-82 […].
# All microcalorimetry experiments were conducted at 25°C using a PEAQ ITC (Malvern, UK) in 50 mM HEPES (pH 7.5), 200 mM NaCl, 5% glycerol, and 1 mM β-ME (ITC buffer). All proteins were purified by SEC using the same buffer prior to ITC experiments to avoid buffer mismatches. To measure binding of SNX27 to SNX1 proteins, 800 μM of hSNX27FERM was titrated into 20 μM of GST-mSNX1_1-139 or His-SNX1FL. For the binding of SNX1 and SNX2 peptides to SNX27, peptides were diluted 10-fold to 800 μM in ITC buffer peptides and titrated into 20 μM SNX27FL proteins containing the same 1:10 ratio of peptide buffer (100 mM Tris-HCl, pH 10.6). The competitive ITC experiments were carried out by titrating 800 μM SNX1_75-92 peptides into 20 μM proteins with 2-fold molar excess SNX2_16-33 peptide preincubated with SNX27 on ice for an hour. For ITC experiment using SNX1_75-92 against hSNX27 wild-type and single-site mutants, 600 μM SNX1_75-92 peptide was titrated into 20 μM hSNX27 proteins.
# The ITC experiments were conducted with 1 injection of 0.4 μL followed by a series of 12 injections of 3.2 μL each with 180-second intervals and a stirring speed of 850 rpm. The heat exchange of interactions was obtained through integrating the observed peaks and background correction by subtracting the heats of dilution. Data were analyzed with Malvern software package by fitting and normalized data to a single-site binding model, yielding the thermodynamic parameters Kd, ΔH, ΔG, and −TΔS for all binding experiments. The stoichiometry was refined initially, and if the value was close to 1, then N was set to exactly 1.0 for calculation. All experiments were performed at least twice to guarantee reproducibility of the data.
# [4] = tested on: HeLa cells, EEA1 endosomes; assay: Colocalization of GFP-tagged SNX27 or SNX1 constructs with EEA1 (Pearson); type: cell-based
# Protocol: (§3) Cells were fixed in 4% (v/v) PFA for 20 minutes and washed 3 times in PBS and permeabilized with 0.1% (v/v) Triton X-100. For LAMP1 staining, cells were instead permeabilized by submersion in liquid nitrogen for 20 seconds. Fixed cells were blocked in 1% (w/v) BSA and incubated in primary antibody and respective secondary antibody (Alexa Fluor; Thermo Fisher Scientific) in 1% (w/v) BSA.
# (§4) Microscopy images were collected with a confocal laser-scanning microscope (SP5 AOBS; Leica Microsystems, Germany) attached to an inverted epifluorescence microscope (DMI6000; […]). A 63× 1.4 NA oil immersion objective (Plan Apochromat BL; Leica Biosystems, Germany) and the standard SP5 system acquisition software and detector were used. Images were captured at room temperature as z stacks with photomultiplier tube detectors with a photocathode made of gallium-arsenide-phosphide (Leica Microsystems) for collecting light emission. Images were captured using Application Suite AF software (version 2.7.3.9723; Leica Microsystems) and then analyzed with the Volocity 6.3 software (PerkinElmer, USA).
# [5] = tested on: HeLa cells, SNX6 endosomes; assay: Colocalization of GFP-tagged SNX27 or SNX1 constructs with SNX6 (Pearson); type: cell-based
# Protocol: as §3, §4
# [6] = tested on: HeLa cells, endogenous ITGA5; assay: Cycloheximide degradation assay, ITGA5 level; type: cell-based; details: for ITGa5 level, 0h: 0h (set to 100)
# Protocol: as §1, §2
# [7] = tested on: HeLa cells, endogenous GLUT1; assay: Cycloheximide degradation assay, GLUT1 level; type: cell-based; details: for GLUT1 level, 0h: 0h (set to 100)
# Protocol: as §1, §2
# [8] = 8h relative to 0h = 100, replicate n1, Fig. 6C
# [9] = 8h relative to 0h = 100, replicate n2, Fig. 6C
# [10] = 8h relative to 0h = 100, replicate n3, Fig. 6C
substance,measurement,setting,value
D45K,"SNX27 co-immunoprecipitated (quantitative western blot), mean",[1]; GFP trap,45.07
same,"SNX6 co-immunoprecipitated (quantitative western blot), mean",[2],102
D87K,"SNX27 co-immunoprecipitated (quantitative western blot), mean",[1]; GFP trap,34.69
same,"SNX6 co-immunoprecipitated (quantitative western blot), mean",[2],115.6
E42K,"SNX27 co-immunoprecipitated (quantitative western blot), mean",[1]; GFP trap,52.35
same,"SNX6 co-immunoprecipitated (quantitative western blot), mean",[2],105.5
E44K,"SNX27 co-immunoprecipitated (quantitative western blot), mean",[1]; GFP trap,63.19
same,"SNX6 co-immunoprecipitated (quantitative western blot), mean",[2],113.2
E84K,"SNX27 co-immunoprecipitated (quantitative western blot), mean",[1]; GFP trap,45.59
same,"SNX6 co-immunoprecipitated (quantitative western blot), mean",[2],104.1
EAGDSDTEGEDIFTGAA [SNX1_35-51],Kd,[3]; read-out: Kd,33.4 ± 1.89 µM
"EAGDSDTEGEKIFTGAA [SNX1_35-51(D45K), SNX1 35–51 peptide with charge swap mutation D45K]",Kd,[3]; listed as SNX1(D45K),no detectable binding
same,Kd,[3]; listed as hSNX135-51 (D45K),No binding detected
F47K,"SNX27 co-immunoprecipitated (quantitative western blot), mean",[1]; GFP trap,42.86
same,"SNX6 co-immunoprecipitated (quantitative western blot), mean",[2],98.51
F89D,"SNX27 co-immunoprecipitated (quantitative western blot), mean",[1]; GFP trap,41.68
same,"SNX6 co-immunoprecipitated (quantitative western blot), mean",[2],109.4
GFP-SNX1(D45K): full-length GFP-SNX1 point mutant in the first aDLF motif,reduced binding to SNX27,[1]; Fig 3F,around 50%
"GFP-SNX1(D45K,D87K): double mutant targeting key residues in both aDLF motifs of SNX1","SNX27 binding, in words","[1]; Fig 3F, S2B Fig, double aDLF mutants in HEK293T, GFP trap",near undetectable levels
GFP-SNX1(E42K): full-length GFP-SNX1 point mutant in the first aDLF motif,reduced binding to SNX27,[1]; Fig 3F,around 50%
GFP-SNX1(E44K): full-length GFP-SNX1 point mutant in the first aDLF motif,reduced binding to SNX27,[1]; Fig 3F,around 50%
GFP-SNX1(F47K): full-length GFP-SNX1 point mutant in the first aDLF motif,reduced binding to SNX27,[1]; Fig 3F,around 50%
GFP-SNX1(I46K): full-length GFP-SNX1 point mutant in the first aDLF motif,reduced binding to SNX27,[1]; Fig 3F,around 50%
GFP-SNX1: GFP-tagged full-length SNX1,"colocalization with EEA1 (SNX1 vs EEA1), mean",[4]; mean of n = 3,0.4267
same,colocalization with EEA1 (SNX1 vs EEA1),[4]; replicate n1,0.53
same,colocalization with EEA1 (SNX1 vs EEA1),[4]; replicate n2,0.34
same,colocalization with EEA1 (SNX1 vs EEA1),[4]; replicate n3,0.41
same,"colocalization with SNX6 (SNX1 vs SNX6), mean",[5]; mean of n = 3,0.6597
same,colocalization with SNX6 (SNX1 vs SNX6),[5]; replicate n1,0.81
same,colocalization with SNX6 (SNX1 vs SNX6),[5]; replicate n2,0.506
same,colocalization with SNX6 (SNX1 vs SNX6),[5]; replicate n3,0.663
I46K,"SNX27 co-immunoprecipitated (quantitative western blot), mean",[1]; GFP trap,47.55
same,"SNX6 co-immunoprecipitated (quantitative western blot), mean",[2],90.56
KO +GFP-SNX1,"ITGa5 level, 0h","[6]; replicate n1, Fig. 6C",100
same,"ITGa5 level, 0h","[6]; replicate n2, Fig. 6C",100
same,"ITGa5 level, 0h","[6]; replicate n3, Fig. 6C",100
same,"ITGa5 level, 0h, Mean 1","[6]; 0h, mean of n = 3, right-hand (unlabelled) statistics block, Fig. 6C",100
same,"ITGa5 level, 8h",[6]; [8],98.9429
same,"ITGa5 level, 8h",[6]; [9],105.348
same,"ITGa5 level, 8h",[6]; [10],145.221
same,"GLUT1 level, 0h","[7]; replicate n1, Fig. 6C",100
same,"GLUT1 level, 0h","[7]; replicate n2, Fig. 6C",100
same,"GLUT1 level, 0h","[7]; replicate n3, Fig. 6C",100
same,"GLUT1 level, 0h, Mean 1","[7]; 0h, mean of n = 3, Fig. 6C",100
same,"GLUT1 level, 8h, Mean 2","[7]; 8h relative to 0h = 100, mean of n = 3, Fig. 6C",106.2
same,"GLUT1 level, 8h",[7]; [8],90.4645
same,"GLUT1 level, 8h",[7]; [9],112.847
same,"GLUT1 level, 8h",[7]; [10],115.364
"TDFEDLEDGESSSTSTVS [SNX2_16-33(DLF/SSS), SNX2 16–33 peptide with triple mutation DLF-SSS]",Kd,[3]; listed as SNX2(DLF-SSS),no detectable binding
same,Kd,[3]; listed as hSNX216-33 (DLF-SSS),No binding detected
TEVVLDDDREDLFAEATEEVS [SNX2_62-82],Kd,[3]; read-out: Kd,22.6 ± 1.89 µM
